Measured values reported in PMC2920070 (Journal of medicinal chemistry, 2010).
pIC50: −log10 of the molar value. Converted amounts (≈) assume the structure as drawn.

How the values were obtained:
[1] = biological target: NR1/NR2D (Rattus norvegicus, UniProt P35439+Q62645); assay: Two-electrode voltage-clamp, recombinant NR1/NR2D in Xenopus oocytes; assay type: cell-based; conditions: for GluR1/NR2D: (IC50 GluR1)/(IC50 NR2D) / NR2A/NR2D: (IC50 NR2A)/(IC50 NR2D): selectivity ratio; for response at saturating concentration, NR2D (fitted minimum): fit with variable minimum
[2] = biological target: NR1/NR2C (Rattus norvegicus, UniProt P35439+Q00961); assay: Two-electrode voltage-clamp, recombinant NR1/NR2C in Xenopus oocytes; assay type: cell-based; conditions: for response at saturating concentration, NR2C (fitted minimum): fit with variable minimum
[3] = biological target: GluR1 (Rattus norvegicus, UniProt P19490); assay: Two-electrode voltage-clamp, recombinant GluR1; assay type: cell-based
[4] = biological target: GluR6 (Rattus norvegicus, UniProt P42260); assay: Two-electrode voltage-clamp, recombinant GluR6; assay type: cell-based; conditions: 30 μM compound
[5] = biological target: NR1/NR2A (Rattus norvegicus, UniProt P35439+Q00959); assay: Two-electrode voltage-clamp, recombinant NR1/NR2A in Xenopus oocytes; assay type: cell-based; conditions: for response at saturating concentration, NR2A (fitted minimum): fit with variable minimum, predicted
[6] = biological target: NR1/NR2B (Rattus norvegicus, UniProt P35439+Q00960); assay: Two-electrode voltage-clamp, recombinant NR1/NR2B in Xenopus oocytes; assay type: cell-based; conditions: for response at saturating concentration, NR2B (fitted minimum): fit with variable minimum, predicted
[7] = Maximum solubility by nephelometry; assay type: physicochemical; conditions: oocyte recording solution with 1% DMSO, aqueous buffer, kinetic from dmso stock

Chain of NR1/NR2C (Q00961 20-1237, other chains not shown): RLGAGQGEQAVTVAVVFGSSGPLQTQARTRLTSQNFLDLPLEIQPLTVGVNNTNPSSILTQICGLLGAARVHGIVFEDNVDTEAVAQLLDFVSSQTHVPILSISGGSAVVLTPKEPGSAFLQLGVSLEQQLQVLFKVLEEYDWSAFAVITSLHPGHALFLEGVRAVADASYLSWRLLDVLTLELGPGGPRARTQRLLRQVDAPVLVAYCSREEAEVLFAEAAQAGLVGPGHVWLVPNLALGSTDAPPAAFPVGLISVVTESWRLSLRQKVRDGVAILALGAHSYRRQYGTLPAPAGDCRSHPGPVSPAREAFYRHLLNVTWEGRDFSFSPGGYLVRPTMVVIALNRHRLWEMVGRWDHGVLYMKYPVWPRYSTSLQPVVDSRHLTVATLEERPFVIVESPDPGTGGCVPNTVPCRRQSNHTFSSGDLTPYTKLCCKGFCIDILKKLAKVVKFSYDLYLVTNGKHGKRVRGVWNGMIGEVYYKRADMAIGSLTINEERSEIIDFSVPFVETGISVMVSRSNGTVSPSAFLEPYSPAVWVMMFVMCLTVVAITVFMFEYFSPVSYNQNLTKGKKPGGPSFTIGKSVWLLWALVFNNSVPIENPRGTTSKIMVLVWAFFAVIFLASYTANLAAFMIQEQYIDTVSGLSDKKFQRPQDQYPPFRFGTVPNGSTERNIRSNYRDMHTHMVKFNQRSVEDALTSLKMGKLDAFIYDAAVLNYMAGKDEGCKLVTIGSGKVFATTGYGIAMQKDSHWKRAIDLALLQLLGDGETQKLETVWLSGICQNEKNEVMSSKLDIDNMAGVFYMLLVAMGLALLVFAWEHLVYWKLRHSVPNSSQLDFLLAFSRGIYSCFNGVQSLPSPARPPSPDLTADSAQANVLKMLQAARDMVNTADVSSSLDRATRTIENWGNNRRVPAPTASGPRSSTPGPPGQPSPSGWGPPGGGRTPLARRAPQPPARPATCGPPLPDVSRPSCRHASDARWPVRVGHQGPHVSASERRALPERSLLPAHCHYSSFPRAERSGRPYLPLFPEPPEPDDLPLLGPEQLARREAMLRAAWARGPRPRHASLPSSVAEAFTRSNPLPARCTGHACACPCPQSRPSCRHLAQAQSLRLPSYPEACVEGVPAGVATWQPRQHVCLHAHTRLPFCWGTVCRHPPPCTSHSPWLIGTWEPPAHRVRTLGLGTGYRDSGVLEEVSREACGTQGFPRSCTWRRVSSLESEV
Chain of NR1/NR2A (Q00959 23-1464, other chains not shown): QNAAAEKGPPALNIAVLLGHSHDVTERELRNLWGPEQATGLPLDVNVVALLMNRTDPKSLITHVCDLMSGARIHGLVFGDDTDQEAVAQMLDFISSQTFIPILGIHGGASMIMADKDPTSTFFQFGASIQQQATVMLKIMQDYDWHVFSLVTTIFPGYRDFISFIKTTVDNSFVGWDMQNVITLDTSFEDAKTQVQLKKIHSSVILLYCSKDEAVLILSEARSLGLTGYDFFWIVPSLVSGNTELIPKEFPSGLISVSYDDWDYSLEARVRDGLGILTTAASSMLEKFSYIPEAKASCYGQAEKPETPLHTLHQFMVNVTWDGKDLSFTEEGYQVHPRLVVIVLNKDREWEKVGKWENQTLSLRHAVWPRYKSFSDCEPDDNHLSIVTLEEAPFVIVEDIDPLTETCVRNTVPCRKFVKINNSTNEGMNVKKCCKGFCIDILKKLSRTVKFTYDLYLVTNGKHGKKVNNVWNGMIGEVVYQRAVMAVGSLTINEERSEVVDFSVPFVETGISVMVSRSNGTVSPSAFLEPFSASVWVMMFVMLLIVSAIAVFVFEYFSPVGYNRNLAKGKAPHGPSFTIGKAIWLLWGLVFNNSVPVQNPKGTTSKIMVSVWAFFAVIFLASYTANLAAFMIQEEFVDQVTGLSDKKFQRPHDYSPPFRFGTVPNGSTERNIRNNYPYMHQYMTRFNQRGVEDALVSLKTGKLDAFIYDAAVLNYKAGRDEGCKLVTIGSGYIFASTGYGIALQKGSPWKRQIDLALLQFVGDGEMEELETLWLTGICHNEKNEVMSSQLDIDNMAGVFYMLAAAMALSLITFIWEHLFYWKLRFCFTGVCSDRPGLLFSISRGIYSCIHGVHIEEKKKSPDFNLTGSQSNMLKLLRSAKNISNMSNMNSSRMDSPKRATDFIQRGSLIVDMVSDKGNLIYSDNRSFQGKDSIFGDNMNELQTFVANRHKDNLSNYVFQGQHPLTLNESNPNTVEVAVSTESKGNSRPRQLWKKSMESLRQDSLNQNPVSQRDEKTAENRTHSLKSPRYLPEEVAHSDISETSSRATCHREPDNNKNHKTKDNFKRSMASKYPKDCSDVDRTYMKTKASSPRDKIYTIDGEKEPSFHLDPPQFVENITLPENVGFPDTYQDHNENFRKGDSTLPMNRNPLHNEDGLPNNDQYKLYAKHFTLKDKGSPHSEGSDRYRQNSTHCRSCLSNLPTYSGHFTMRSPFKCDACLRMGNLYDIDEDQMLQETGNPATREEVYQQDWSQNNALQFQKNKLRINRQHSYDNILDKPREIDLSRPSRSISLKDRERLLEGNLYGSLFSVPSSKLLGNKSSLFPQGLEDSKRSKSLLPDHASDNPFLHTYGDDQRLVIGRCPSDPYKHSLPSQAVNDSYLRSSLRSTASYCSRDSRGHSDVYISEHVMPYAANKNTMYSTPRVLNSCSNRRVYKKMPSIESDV
Chain of GluR1 (P19490 19-907): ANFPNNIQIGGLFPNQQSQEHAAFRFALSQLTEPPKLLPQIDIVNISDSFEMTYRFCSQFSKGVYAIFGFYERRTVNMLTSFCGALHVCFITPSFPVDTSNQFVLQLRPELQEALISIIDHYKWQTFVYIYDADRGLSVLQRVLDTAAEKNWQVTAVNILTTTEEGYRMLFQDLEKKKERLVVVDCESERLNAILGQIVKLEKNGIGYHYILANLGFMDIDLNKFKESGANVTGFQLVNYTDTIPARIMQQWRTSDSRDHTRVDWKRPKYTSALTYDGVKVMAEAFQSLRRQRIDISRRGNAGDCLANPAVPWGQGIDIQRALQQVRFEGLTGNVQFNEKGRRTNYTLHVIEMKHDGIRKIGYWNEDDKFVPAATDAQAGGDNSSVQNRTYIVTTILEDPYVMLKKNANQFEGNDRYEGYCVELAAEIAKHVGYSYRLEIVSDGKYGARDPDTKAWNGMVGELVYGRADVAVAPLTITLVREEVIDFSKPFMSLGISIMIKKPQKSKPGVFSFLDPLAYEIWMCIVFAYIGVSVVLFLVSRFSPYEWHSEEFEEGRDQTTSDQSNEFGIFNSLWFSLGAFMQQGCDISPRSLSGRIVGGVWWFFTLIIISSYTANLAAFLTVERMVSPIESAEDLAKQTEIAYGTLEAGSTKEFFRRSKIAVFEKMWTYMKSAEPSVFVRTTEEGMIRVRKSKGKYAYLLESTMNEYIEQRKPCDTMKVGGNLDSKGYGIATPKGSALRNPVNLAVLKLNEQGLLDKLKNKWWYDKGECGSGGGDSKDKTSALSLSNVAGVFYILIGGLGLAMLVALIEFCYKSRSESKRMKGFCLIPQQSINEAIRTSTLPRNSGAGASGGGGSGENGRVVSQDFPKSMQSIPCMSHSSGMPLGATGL
Chain of NR1/NR2B (Q00960 27-1482, other chains not shown): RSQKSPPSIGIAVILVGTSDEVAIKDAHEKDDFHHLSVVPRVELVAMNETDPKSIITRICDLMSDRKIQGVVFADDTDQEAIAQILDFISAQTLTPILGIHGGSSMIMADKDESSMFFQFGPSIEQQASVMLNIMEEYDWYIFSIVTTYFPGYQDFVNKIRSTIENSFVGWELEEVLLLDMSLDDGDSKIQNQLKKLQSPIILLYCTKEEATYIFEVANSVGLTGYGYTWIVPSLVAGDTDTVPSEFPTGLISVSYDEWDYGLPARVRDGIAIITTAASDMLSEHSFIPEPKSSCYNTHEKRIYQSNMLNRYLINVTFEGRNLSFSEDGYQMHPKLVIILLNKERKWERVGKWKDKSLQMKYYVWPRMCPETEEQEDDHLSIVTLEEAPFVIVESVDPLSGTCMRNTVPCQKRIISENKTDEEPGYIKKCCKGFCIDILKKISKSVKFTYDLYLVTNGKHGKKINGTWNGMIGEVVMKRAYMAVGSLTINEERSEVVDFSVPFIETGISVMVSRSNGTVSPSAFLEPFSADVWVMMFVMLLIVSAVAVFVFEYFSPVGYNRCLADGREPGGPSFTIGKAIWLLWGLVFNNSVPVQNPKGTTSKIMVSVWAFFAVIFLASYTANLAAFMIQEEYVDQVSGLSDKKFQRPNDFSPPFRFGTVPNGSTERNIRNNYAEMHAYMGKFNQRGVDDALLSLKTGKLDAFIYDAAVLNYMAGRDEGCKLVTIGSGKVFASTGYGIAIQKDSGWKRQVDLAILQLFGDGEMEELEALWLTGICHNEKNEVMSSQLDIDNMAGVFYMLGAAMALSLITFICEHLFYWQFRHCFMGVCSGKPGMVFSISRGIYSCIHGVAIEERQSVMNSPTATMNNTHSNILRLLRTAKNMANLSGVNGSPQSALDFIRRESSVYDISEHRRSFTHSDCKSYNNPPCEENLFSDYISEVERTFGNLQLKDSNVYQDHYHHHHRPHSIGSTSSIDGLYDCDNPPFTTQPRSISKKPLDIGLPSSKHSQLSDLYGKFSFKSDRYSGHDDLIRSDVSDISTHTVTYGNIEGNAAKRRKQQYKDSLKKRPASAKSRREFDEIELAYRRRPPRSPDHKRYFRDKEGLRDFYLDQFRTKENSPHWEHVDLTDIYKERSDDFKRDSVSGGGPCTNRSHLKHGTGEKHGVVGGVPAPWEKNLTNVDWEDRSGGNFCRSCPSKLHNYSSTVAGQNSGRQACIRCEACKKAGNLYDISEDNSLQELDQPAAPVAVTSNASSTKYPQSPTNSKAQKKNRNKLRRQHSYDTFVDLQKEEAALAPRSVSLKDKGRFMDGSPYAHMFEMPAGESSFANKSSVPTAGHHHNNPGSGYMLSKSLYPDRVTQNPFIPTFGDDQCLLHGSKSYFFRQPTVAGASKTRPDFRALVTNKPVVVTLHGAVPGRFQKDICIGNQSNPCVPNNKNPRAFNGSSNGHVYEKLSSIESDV

O=C(O)c1ccc(-n2c(/C=C/c3cccc([N+](=O)[O-])c3)nc3ccccc3c2=O)cc1 [Compound 2, (E)-4-(2-(3-nitrostyryl)-4-oxoquinazolin-3(4H)-yl)benzoic acid]
extent of inhibition of NR1/NR2D responses [1]: completely | voltage dependence of inhibition at NR1/NR2D ([1]; 10 μM compound, -40 mV vs +40 mV): voltage-independent | mode of inhibition at NR1/NR2D ([1]; 30 μM compound, glutamate/glycine raised from 100/30 μM to 1000/300 μM): non-competitive | extent of inhibition of NR1/NR2C responses [2]: completely | mode of inhibition at NR1/NR2C [2]: non-competitive | voltage dependence of inhibition at NR1/NR2C [2]: voltage-independent | fold more potent (lower fitted IC50) at NMDA receptors than AMPA receptors [3]: 4-5 fold

COc1ccccc1-n1c(/C=C/c2ccccc2[N+](=O)[O-])nc2ccccc2c1=O [Compound 3, (E)-3-(2-methoxyphenyl)-2-(2-nitrostyryl)quinazolin-4(3H)-one]
extent of inhibition of NR1/NR2D responses [1]: completely | extent of inhibition of NR1/NR2C responses [2]: completely | fold more potent (lower fitted IC50) at NMDA receptors than AMPA receptors [3]: 4-5 fold

O=C(O)c1ccc(-n2c(/C=C/c3ccccc3)nc3ccccc3c2=O)cc1 [Compound 23]
pIC50 [2]: 4.41

COc1ccc(/C=C/c2nc3ccccc3c(=O)n2-c2ccc(C(=O)O)cc2)cc1 [Compound 24]
pIC50 [2]: 4.38

COc1cccc(/C=C/c2nc3ccccc3c(=O)n2-c2ccc(C(=O)O)cc2)c1 [Compound 25]
pIC50 [2]: 4.77

COc1ccccc1/C=C/c1nc2ccccc2c(=O)n1-c1ccc(C(=O)O)cc1 [Compound 26]
pIC50 [2]: 4.49

O=C(O)c1ccc(-n2c(/C=C/c3ccc(C(F)(F)F)cc3)nc3ccccc3c2=O)cc1 [Compound 27]
pIC50 [2]: 4.64

O=C(O)c1ccc(-n2c(/C=C/c3cccc(C(F)(F)F)c3)nc3ccccc3c2=O)cc1 [Compound 28]
pIC50 [2]: 5.10

O=C(O)c1ccc(-n2c(/C=C/c3ccccc3C(F)(F)F)nc3ccccc3c2=O)cc1 [Compound 29]
GluR1/NR2D: (IC50 GluR1)/(IC50 NR2D) [1]: >10 | NR2A/NR2D: (IC50 NR2A)/(IC50 NR2D) [1]: >10 | pIC50 [2]: 4.06

O=C(O)c1ccc(-n2c(/C=C/c3ccc(O)cc3)nc3ccccc3c2=O)cc1 [Compound 30]
pIC50 [2]: 4.30

Cc1ccc(/C=C/c2nc3ccccc3c(=O)n2-c2ccc(C(=O)O)cc2)cc1 [Compound 33]
GluR1/NR2D: (IC50 GluR1)/(IC50 NR2D) [1]: >17 | pIC50 [2]: 4.55

Cc1cccc(/C=C/c2nc3ccccc3c(=O)n2-c2ccc(C(=O)O)cc2)c1 [Compound 34]
GluR1/NR2D: (IC50 GluR1)/(IC50 NR2D) [1]: >16 | pIC50 [2]: 4.55

O=C(O)c1ccc(-n2c(/C=C/c3cccc([N+](=O)[O-])c3)nc3cccc(Cl)c3c2=O)cc1 [Compound 36, (E)-4-(5-chloro-2-(3-nitrostyryl)-4-oxoquinazolin-3(4H)-yl)benzoic acid]
GluR1/NR2D: (IC50 GluR1)/(IC50 NR2D) [1]: >20 | NR2A/NR2D: (IC50 NR2A)/(IC50 NR2D) [1]: >20

O=C(O)c1ccc(-n2c(/C=C/c3ccc([N+](=O)[O-])cc3)nc3c(Cl)cc(Cl)cc3c2=O)cc1 [Compound 41, (E)-4-(6,8-dichloro-2-(4-nitrostyryl)-4-oxoquinazolin-3(4H)-yl)benzoic acid]
GluR1/NR2D: (IC50 GluR1)/(IC50 NR2D) [1]: >50 | NR2A/NR2D: (IC50 NR2A)/(IC50 NR2D) [1]: >50

O=C(O)c1ccc(-n2c(/C=C/c3cccc([N+](=O)[O-])c3)nc3ccc(F)cc3c2=O)cc1 [Compound 42, (E)-4-(6-fluoro-2-(3-nitrostyryl)-4-oxoquinazolin-3(4H)-yl)benzoic acid]
pIC50 [2]: 4.85

COc1ccc2nc(/C=C/c3cccc([N+](=O)[O-])c3)n(-c3ccc(C(=O)O)cc3)c(=O)c2c1 [Compound 46, (E)-4-(6-methoxy-2-(3-nitrostyryl)-4-oxoquinazolin-3(4H)-yl)benzoic acid]
effect on GluR6 responses [4]: No significant effect | selectivity for NR2C/D (NR2D) over NR2A/B [1]: > 50 fold

O=C(O)c1ccc(-n2c(/C=C/c3cccc([N+](=O)[O-])c3)nc3ccc(-c4ccccc4)cc3c2=O)cc1 [Compound 49, (E)-4-(2-(3-nitrostyryl)-4-oxo-6-phenylquinazolin-3(4H)-yl)benzoic acid]
response at saturating concentration, NR2A (fitted minimum) [5]: 68 % of control | response at saturating concentration, NR2D (fitted minimum) [1]: 14 % of control | response at saturating concentration, NR2C (fitted minimum) [2]: 22 % of control | response at saturating concentration, NR2B (fitted minimum) [6]: 51 % of control

O=C(O)c1ccc(-n2c(/C=C/c3cccc([N+](=O)[O-])c3)nc3cc4ccccc4cc3c2=O)cc1 [Compound 50, (E)-4-(2-(3-nitrostyryl)-4-oxobenzo[g]quinazolin-3(4H)-yl)benzoic acid]
response at saturating concentration, NR2A (fitted minimum) [5]: 68 % of control | response at saturating concentration, NR2D (fitted minimum) [1]: 20 % of control | response at saturating concentration, NR2C (fitted minimum) [2]: 26 % of control | response at saturating concentration, NR2B (fitted minimum) [6]: 50 % of control

O=C(O)c1ccc(-n2c(/C=C/c3cccc([N+](=O)[O-])c3)nc3cc4c(cc3c2=O)OCO4)cc1 [Compound 52, (E)-4-(6-(3-nitrostyryl)-8-oxo-[1,3]dioxolo[4,5-g]quinazolin-7(8H)-yl)benzoic acid]
GluR1/NR2D: (IC50 GluR1)/(IC50 NR2D) [1]: >8

COc1ccc2nc(/C=C/c3cccc(C(=O)O)c3)n(-c3ccc(C(=O)O)cc3)c(=O)c2c1 [Compound 62, (E)-3-(2-(3-(4-carboxyphenyl)-6-methoxy-4-oxo-3,4-dihydroquinazolin-2-yl)vinyl)benzoic acid]
GluR1/NR2D: (IC50 GluR1)/(IC50 NR2D) [1]: >2 | NR2A/NR2D: (IC50 NR2A)/(IC50 NR2D) [1]: >2

COc1ccc2nc(/C=C/c3ccc(OC(C)=O)c(OC(C)=O)c3)n(-c3ccc(C(=O)O)cc3)c(=O)c2c1 [Compound 64, (E)-4-(2-(3,4-diacetoxystyryl)-6-methoxy-4-oxoquinazolin-3(4H)-yl)benzoic acid]
pIC50 [5]: < 3.52 | pIC50 [1]: 4.28 | GluR1/NR2D: (IC50 GluR1)/(IC50 NR2D) [1]: >6 | NR2A/NR2D: (IC50 NR2A)/(IC50 NR2D) [1]: >6 | pIC50 [2]: 3.91 | pIC50 [3]: < 3.52 | pIC50 [6]: < 3.52

N#Cc1ccc(/C=C/c2nc3ccccc3c(=O)n2-c2ccc(C(=O)O)cc2)cc1 [Compound 66]
GluR1/NR2D: (IC50 GluR1)/(IC50 NR2D) [1]: >9

C=CCOc1ccc(/C=C/c2nc3ccccc3c(=O)n2-c2ccc(C(=O)O)cc2)cc1 [Compound 69]
GluR1/NR2D: (IC50 GluR1)/(IC50 NR2D) [1]: >10 | NR2A/NR2D: (IC50 NR2A)/(IC50 NR2D) [1]: >10

O=C(O)c1ccc(-n2c(/C=C/c3ccc([N+](=O)[O-])cc3)nc3ccc(I)cc3c2=O)cc1 [Compound 72, (E)-4-(6-iodo-2-(4-nitrostyryl)-4-oxoquinazolin-3(4H)-yl)benzoic acid]
effect on GluR6 responses [4]: No significant effect | response at saturating concentration, NR2D (fitted minimum) [1]: 26 % of control | GluR1/NR2D: (IC50 GluR1)/(IC50 NR2D) [1]: >220 | response at saturating concentration, NR2C (fitted minimum) [2]: 31 % of control | solubility [7]: 10 µM (≈ 5.39 µg/mL)

O=C(O)c1cccc(-n2c(/C=C/c3ccc([N+](=O)[O-])cc3)nc3ccc(I)cc3c2=O)c1 [Compound 73, (E)-3-(6-iodo-2-(4-nitrostyryl)-4-oxoquinazolin-3(4H)-yl)benzoic acid]
GluR1/NR2D: (IC50 GluR1)/(IC50 NR2D) [1]: >37 | NR2A/NR2D: (IC50 NR2A)/(IC50 NR2D) [1]: >37

COc1ccc2nc(/C=C/c3ccc([N+](=O)[O-])cc3)n(-c3ccc(C(=O)O)cc3)c(=O)c2c1 [Compound 75, (E)-4-(6-methoxy-2-(4-nitrostyryl)-4-oxoquinazolin-3(4H)-yl)benzoic acid]
GluR1/NR2D: (IC50 GluR1)/(IC50 NR2D) [1]: >42

COc1ccc2nc(/C=C/c3ccc([N+](=O)[O-])cc3)n(-c3cccc(C(=O)O)c3)c(=O)c2c1 [Compound 76, (E)-3-(6-methoxy-2-(4-nitrostyryl)-4-oxoquinazolin-3(4H)-yl)benzoic acid]
GluR1/NR2D: (IC50 GluR1)/(IC50 NR2D) [1]: >19

Cc1nc2ccc(I)cc2c(=O)n1-c1ccc(C(=O)O)cc1 [Compound 78, 4-(6-Iodo-2-methyl-4-oxoquinazolin-3(4H)-yl)benzoic acid]
inhibitory activity ([1]; concentrations up to 100 μM): total loss of inhibitory activity

Cc1ccc2nc(CCc3ccccc3)n(-c3ccc(C(=O)O)cc3)c(=O)c2c1 [Compound 81, 4-(6-Methyl-4-oxo-2-phenethylquinazolin-3(4H)-yl)benzoic acid]
potency reduction on saturating the styryl linker (81 vs 80) [1]: 10 fold

O=C(O)c1ccc(-n2c(/C=C/c3ccc4ccccc4c3)nc3ccccc3c2=O)cc1 [Compound 82]
GluR1/NR2D: (IC50 GluR1)/(IC50 NR2D) [1]: >50

O=C(O)c1ccc(-n2c(/C=C/c3ccc4c(c3)OCCO4)nc3ccccc3c2=O)cc1 [Compound 86]
GluR1/NR2D: (IC50 GluR1)/(IC50 NR2D) [1]: >18 | NR2A/NR2D: (IC50 NR2A)/(IC50 NR2D) [1]: >18

COc1cccc(-n2c(/C=C/c3cccnc3)nc3ccc(I)cc3c2=O)c1 [Compound 90]
pIC50 [1]: 3.70

(E)-4-(6,7-dimethoxy-2-(3-nitrostyryl)-4-oxoquinazolin-3(4H)-yl)benzoic acid [Compound 63]
GluR1/NR2D: (IC50 GluR1)/(IC50 NR2D) [1]: 7
